Series [1] relates to Frankliniella occidentalis. Kind of series: Activity against Frankliniella occidentalis. It counts as in vivo. Particulars: bean leaf discs (6 days) or bean plants (14 days); mixed population. The protocol: Bean leaf discs on agar in petri dishes or bean plants in a spray chamber are treated with diluted test solutions. After drying leaf discs are cut and placed in plastic cups on the surface of an agar layer and infested with mixed population. 6 days (leaf discs) or 14 days (plants) after the infestation, samples are checked for reduction of treated population and compared to the non treated population. In this test, compounds listed in Table P above show good activity. In particular compound T7.1.7 has an activity of over 80%.

The test system of another series is Heliothis virescens. The series can be described thus: Activity against Heliothis virescens (foliar application). Particulars: 144 h, 400 ppm spray on young soya plants, 1st instar caterpillars, 6 days, read-out: percentage reduction in the population and in the feeding damage (% activity). The series is classed as in vivo. The protocol: Young soya plants are sprayed with an aqueous emulsion spray mixture comprising 400 ppm of active ingredient and, after the spray coating has dried on, populated with 10 caterpillars (1st instar) of Heliothis virescens and introduced into a plastic container. 6 days later, the percentage reduction in the population and in the feeding damage (% activity) are determined by comparing the number of dead caterpillars and the feeding damage between the treated and untreated plants.

The next series concerns Spodoptera littoralis. Kind of series: Activity against Spodoptera littoralis. It counts as in vivo. Particulars: 72 h, 400 ppm spray on young soya plants, 1st instar caterpillars, 3 days, read-out: percentage reduction in the population and in the feeding damage (% activity). The protocol:
Young soya plants are sprayed with an aqueous emulsion spray mixture comprising 400 ppm of active ingredient and, after the spray coating has dried on, populated with 10 caterpillars (1st instar) of Spodoptera littoralis and introduced into a plastic container. 3 days later, the percentage reduction in the population and in the feeding damage (% activity) are determined by comparing the number of dead caterpillars and the feeding damage between the treated and untreated plants.

Another series deals with Plutella xylostella. Kind of series: Activity against Plutella xylostella. The series is classed as in vivo. Particulars: 72 h, 400 ppm spray on young cabbage plants, 3rd instar caterpillars, 3 days, read-out: percentage reduction in the population and in the feeding damage (% activity). The protocol:
Young cabbage plants are sprayed with an aqueous emulsion spray mixture comprising 400 ppm of active ingredient and, after the spray coating has dried on, populated with 10 caterpillars (3rd instar) of Plutella xylostella and introduced into a plastic container. 3 days later, the percentage reduction in the population and in the feeding damage (% activity) are determined by comparing the number of dead caterpillars and the feeding damage between the treated and untreated plants.

Another series relates to Diabrotica balteata. The series can be described thus: Activity against Diabrotica balteata (sprayed maize seedlings). It counts as in vivo. To be noted: 144 h, 400 ppm spray on maize seedlings, 2nd instar larvae, 6 days, read-out: percentage reduction in the population (% activity). The protocol: Maize seedlings are sprayed with an aqueous emulsion spray mixture comprising 400 ppm of active ingredient and, after the spray coating has dried on, populated with 10 larvae (2nd instar) of Diabrotica balteata and introduced into a plastic container. 6 days later, the percentage reduction in the population (% activity) is determined by comparing the number of dead larvae between the treated and untreated plants.

A further series concerns Myzus persicae. Kind of series: Systemic insecticide test for Myzus persicae. It counts as in vivo. To be noted: roots of infected pea seedlings in 400 ppm spray mixture, 20°, 3 and 6 days, read-out: percentage reduction in the population (% activity). The protocol: Pea seedlings are infected with Myzus persicae, and their roots are subsequently placed into a spray mixture comprising 400 ppm of active ingredient. The seedlings are then incubated at 20°. 3 and 6 days later, the percentage reduction in the population (% activity) is determined by comparing the number of dead aphids between the treated and untreated plants.

Results on 3 compounds are retold here after patent publication US8580785B2, “Insecticides” (Syngenta Crop Protection LLC, priority 2005, dated 2013).

For `Cc1ccc2c(C)c(NC(=O)c3cc(C(F)(F)F)nn3-c3ncccc3Cl)c(C(=O)NC(C)C)cc2n1` [Compound T7.1.7], the “reduction of treated population (activity)” value in series [1] was “over 80%”. The inhibition at 400 ppm with Heliothis virescens, with Spodoptera littoralis and in the series with Plutella xylostella was > 80% throughout.

Consider `CC(C)NC(=O)c1cc2ncn(C)c2c(Cl)c1NC(=O)c1cc(C(F)(F)F)nn1-c1ncccc1Cl` [Compound T22.1.8, 7-chloro-6-{[2-(3-chloro-pyridin-2-yl)-5-trifluoromethyl-2H-pyrazole-3-carbonyl]-amino}-1-methyl-1H-benzoimidazole-5-carboxylic acid isopropylamide], for which the melting point lay within 150 to 155 °C. The inhibition at 400 ppm in the series on Diabrotica balteata was > 80%. Besides, the inhibition at 400 ppm in the series on Spodoptera littoralis is > 80%. Besides, the inhibition at 400 ppm in the series on Plutella xylostella is > 80%.

With `Cc1nc2cc(C(=O)NC(C)C)c(NC(=O)c3cc(C(F)(F)F)nn3-c3ncccc3Cl)c(Cl)c2n1C` [Compound T35.1.8, 7-chloro-6-{[2-(3-chloro-pyridin-2-yl)-5-trifluoromethyl-2H-pyrazole-3-carbonyl]-amino}-1,2-dimethyl-1H-benzoimidazole-5-carboxylic acid isopropylamide], the melting point lay within 248 to 250 °C. Moreover, the inhibition at 400 ppm with Myzus persicae is > 80%. For the same compound, the inhibition at 400 ppm in the series on Spodoptera littoralis was > 80%. Further, in the series on Plutella xylostella, the inhibition at 400 ppm was > 80%.
